Experimental data taken from US10688084B2 (priority 2016, dated 2020).
Read-outs that look alike come from different tables or passages of the source.

Legend:
cyclooxygenase (COX) = test: COX activity assay (fluorometric kit, peroxidase activity) with skin fibroblast (HSF) cell lysate; assay type: biochemical; conditions: tested in presence of SC560 or celecoxib
Wistar rats [1] = test: Acute (carrageenin) paw edema, anti-inflammatory activity in vivo; set-up: species or system rat; conditions: for ED50: Rattus norvegicus, read-out: ED50 acute inflammation; for Paw volume 0 / Paw volume 3 h: in mL (unit assumed); for Anti-inflammatory effect, %: control = 100.00
Method: The experiment was carried out using female and male Wistar rats aged 6-7 weeks with a body mass of 180-220 g. The number of animals in each group was 10.
The acute inflammatory reaction (edema) was reproduced by subplantar (under plantar or plantar aponeurosis) administration of 0.1 ml of 1% carrageenin solution (sulfated polysaccharide from Irish sea moss). The severity of the inflammatory reaction was assessed 3 hours after the induction of inflammation by a change in the volume of the paw (oncometric). The substance of formula I was administered into the stomach with the probe 1 hour before the introduction of the 1% solution of carrageenin. A 0.5% Tween-80 solution was used as a negative control. The anti-inflammatory effect, assessed by a decrease in edema, was expressed as a percentage of the control. According to the results of the action of four doses of the analyte, the calculation of ED50 was performed.
The introduction to rats was carried out in the amount of no more than 1 ml/100 g. The concentration of the resulting solution was 5 mg/ml.
Animals were euthanized by inhalation of carbon dioxide.

Wistar rats [2] = assay type: in vivo
Method: In the study of antipyretic properties of the formula I compound, were taken female and male Wistar rats aged 6-7 weeks, with a body mass of 180-220 g. The number of animals in each group was 10.
The febrile reaction was caused by subcutaneous administration of a 20% suspension of baking yeast. The rectal temperature was measured with an electrothermometer prior to the introduction of yeast and 18 hours after it (the difference of these measurements is the estimated hyperthermic reaction). The preparation was administered to animals at the peak of hyperthermia once (after 18 hours). The antipyretic effect was evaluated by hyperthermia decrease 2 hours after the injection of the test substance, and then the effect dynamics was recorded at hourly intervals for 7 hours.
The introduction to rats was carried out in the amount of no more than 1 ml/100 g. The concentration of the resulting solution was 7.5 mg/ml.
The difference in temperature after preparation administration and after 18 hours of induction with yeast was taken as the parameter of hyperthermia decrease.
Animals were observed individually after administration throughout the study. […] Wilcoxon nonparametric criterion was used for statistical comparison of experimental groups. Differences were determined at the 0.05 level of significance. The statistical analysis was carried out using the R-studio program.

[3] = mean value without sex distinction
[4] = female rats, 5 mg/kg intragastric
[5] = female rats, 10 mg/kg intragastric
[6] = female rats, 20 mg/kg intragastric
[7] = female rats, 50 mg/kg intragastric
[8] = male rats, 5 mg/kg intragastric
[9] = male rats, 10 mg/kg intragastric
[10] = male rats, 20 mg/kg intragastric
[11] = male rats, 50 mg/kg intragastric

COc1ccc2cc([C@H](C)C(=O)OCc3cnc(C)c(OC(=O)[C@@H](C)c4ccc5cc(OC)ccc5c4)c3COC(=O)[C@@H](C)c3ccc4cc(OC)ccc4c3)ccc2c1 [Compound of formula I, 3-((S)-2-(6-methoxynaphth-2-yl)propanoiloxy)-4,5-bis (((S)-2-(6-methoxinaphtht-2-yl)propanoiloxy)methyl)-2-methylpyridinium (S)-2-(6-methoxynaphth-2-yl) propanoate]
COX isoform preference (cyclooxygenase (COX)): preferential inhibitory activity against the isoform of COX-2
ED50 (Wistar rats [1]; females): 14 mg/kg
ED50 (Wistar rats [1]; males): 23 mg/kg
ED50 (Wistar rats [1]; [3]): 18.5 mg/kg
Inflammatory edema decreased by, vs control group (Wistar rats [1]; female rats, 5 mg/kg): 13.37%
Paw volume 0 (Wistar rats [1]; [4]): 1.00 ± 0.03
Paw volume 3 h (Wistar rats [1]; [4]): 1.94 ± 0.20
Anti-inflammatory effect, % (Wistar rats [1]; female rats, 5 mg/kg): 86.63 ± 17.71%
Inflammatory edema decreased by, vs control group (Wistar rats [1]; female rats, 10 mg/kg): 38.64%
Paw volume 0 (Wistar rats [1]; [5]): 0.96 ± 0.06
Paw volume 3 h (Wistar rats [1]; [5]): 1.60 ± 0.16
Anti-inflammatory effect, % (Wistar rats [1]; female rats, 10 mg/kg): 61.36 ± 17.12%
Inflammatory edema decreased by, vs control group (Wistar rats [1]; female rats, 20 mg/kg): 67.89%
Paw volume 0 (Wistar rats [1]; [6]): 0.91 ± 0.09
Paw volume 3 h (Wistar rats [1]; [6]): 1.23 ± 0.20
Anti-inflammatory effect, % (Wistar rats [1]; female rats, 20 mg/kg): 32.11 ± 15.06%
Inflammatory edema decreased by, vs control group (Wistar rats [1]; female rats, 50 mg/kg): 65.47%
Paw volume 0 (Wistar rats [1]; [7]): 0.91 ± 0.05
Paw volume 3 h (Wistar rats [1]; [7]): 1.26 ± 0.23
Anti-inflammatory effect, % (Wistar rats [1]; female rats, 50 mg/kg): 34.53 ± 18.52%
Inflammatory edema decreased by, vs control group (Wistar rats [1]; male rats, 5 mg/kg): 12.39%
Paw volume 0 (Wistar rats [1]; [8]): 0.89 ± 0.07
Paw volume 3 h (Wistar rats [1]; [8]): 1.87 ± 0.21
Anti-inflammatory effect, % (Wistar rats [1]; male rats, 5 mg/kg): 87.61 ± 19.75%
Inflammatory edema decreased by, vs control group (Wistar rats [1]; male rats, 10 mg/kg): 23.57%
Paw volume 0 (Wistar rats [1]; [9]): 0.93 ± 0.06
Paw volume 3 h (Wistar rats [1]; [9]): 1.84 ± 0.23
Anti-inflammatory effect, % (Wistar rats [1]; male rats, 10 mg/kg): 76.43 ± 22.74%
Inflammatory edema decreased by, vs control group (Wistar rats [1]; male rats, 20 mg/kg): 51.25%
Paw volume 0 (Wistar rats [1]; [10]): 0.93 ± 0.05
Paw volume 3 h (Wistar rats [1]; [10]): 1.51 ± 0.16
Anti-inflammatory effect, % (Wistar rats [1]; male rats, 20 mg/kg): 48.75 ± 16.39%
Inflammatory edema decreased by, vs control group (Wistar rats [1]; male rats, 50 mg/kg): 62.34%
Paw volume 0 (Wistar rats [1]; [11]): 1.04 ± 0.20
Paw volume 3 h (Wistar rats [1]; [11]): 1.54 ± 0.45
Anti-inflammatory effect, % (Wistar rats [1]; male rats, 50 mg/kg): 37.66 ± 19.16%
ED50 acute inflammation (Wistar rats [1]; [3]): 19 mg/kg
Antipyretic action (Wistar rats [2]; 20 mg/kg, both males and females): no antipyretic action was observed
Δ t after 2 hours, (M ± SD) (Wistar rats [2]; 20 mg/kg, females): −0.07
Δ t after 3 hours, (M ± SD) (Wistar rats [2]; 20 mg/kg, females): −0.27
Δ t after 4 hours, (M ± SD) (Wistar rats [2]; 20 mg/kg, females): −0.35
Δ t after 5 hours, (M ± SD) (Wistar rats [2]; 20 mg/kg, females): 0.34
Δ t after 6 hours, (M ± SD) (Wistar rats [2]; 20 mg/kg, females): −0.01
Δ t after 7 hours, (M ± SD) (Wistar rats [2]; 20 mg/kg, females): −0.08
Δ t after 2 hours, (M ± SD) (Wistar rats [2]; 20 mg/kg, males): 0.13
Δ t after 3 hours, (M ± SD) (Wistar rats [2]; 20 mg/kg, males): 0.24
Δ t after 4 hours, (M ± SD) (Wistar rats [2]; 20 mg/kg, males): 0.02
Δ t after 5 hours, (M ± SD) (Wistar rats [2]; 20 mg/kg, males): 0.1
Δ t after 6 hours, (M ± SD) (Wistar rats [2]; 20 mg/kg, males): −0.21
Δ t after 7 hours, (M ± SD) (Wistar rats [2]; 20 mg/kg, males): 0.04
Level of temperature decrease (Wistar rats [2]; 50 mg/kg, 3-4 hours after administration): 0.34-0.97 °C
Δ t after 2 hours, (M ± SD) (Wistar rats [2]; 50 mg/kg, females): 0.87
Δ t after 3 hours, (M ± SD) (Wistar rats [2]; 50 mg/kg, females): 0.91
Δ t after 4 hours, (M ± SD) (Wistar rats [2]; 50 mg/kg, females): 0.66
Δ t after 5 hours, (M ± SD) (Wistar rats [2]; 50 mg/kg, females): 0.53
Δ t after 6 hours, (M ± SD) (Wistar rats [2]; 50 mg/kg, females): 0.61
Δ t after 7 hours, (M ± SD) (Wistar rats [2]; 50 mg/kg, females): 0.5
Temperature lower than before the introduction by (Wistar rats [2]; 50 mg/kg, females, 2 and 3 hours after introduction): 0.9 °C
Temperature decrease (Wistar rats [2]; 50 mg/kg, females, 4, 5, 6 and 7 hours after introduction): 0.5-0.7 °C
Δ t after 2 hours, (M ± SD) (Wistar rats [2]; 50 mg/kg, males): 0.22
Δ t after 3 hours, (M ± SD) (Wistar rats [2]; 50 mg/kg, males): 0.36
Δ t after 4 hours, (M ± SD) (Wistar rats [2]; 50 mg/kg, males): 0.39
Δ t after 5 hours, (M ± SD) (Wistar rats [2]; 50 mg/kg, males): 0.25
Δ t after 6 hours, (M ± SD) (Wistar rats [2]; 50 mg/kg, males): 0.11
Δ t after 7 hours, (M ± SD) (Wistar rats [2]; 50 mg/kg, males): 0.09
Δ t after 2 hours, (M ± SD) (Wistar rats [2]; 75 mg/kg, females): 0.9
Δ t after 3 hours, (M ± SD) (Wistar rats [2]; 75 mg/kg, females): 0.96
Δ t after 4 hours, (M ± SD) (Wistar rats [2]; 75 mg/kg, females): 1.39
Δ t after 5 hours, (M ± SD) (Wistar rats [2]; 75 mg/kg, females): 1.52
Δ t after 6 hours, (M ± SD) (Wistar rats [2]; 75 mg/kg, females): 1.51
Δ t after 7 hours, (M ± SD) (Wistar rats [2]; 75 mg/kg, females): 1.17
Δ t after 2 hours, (M ± SD) (Wistar rats [2]; 75 mg/kg, males): 0.76
Δ t after 3 hours, (M ± SD) (Wistar rats [2]; 75 mg/kg, males): 1.15
Δ t after 4 hours, (M ± SD) (Wistar rats [2]; 75 mg/kg, males): 1.38
Δ t after 5 hours, (M ± SD) (Wistar rats [2]; 75 mg/kg, males): 1.31
Δ t after 6 hours, (M ± SD) (Wistar rats [2]; 75 mg/kg, males): 0.96
Δ t after 7 hours, (M ± SD) (Wistar rats [2]; 75 mg/kg, males): 0.92
Temperature less than before the introduction for (Wistar rats [2]; 75 mg/kg, throughout the experiment): 0.76-1.5 °C
